Assay results as given in patent US20030144213A1, “Combination therapy of angiotensin converting enzyme inhibitor, side-effect reduced amount of aldosterone antagonist and diuretic for treatment of cardiovascular disease” (G.D. Searle & Co., priority 1996, published 2003).

Experiments:
hypertensive patients = settings: cited from earlier work
[1] = tested on: patients with symptomatic heart failure; assay: Spironolactone dose-ranging clinical trial (12 weeks, added to ACE inhibitor, loop diuretic, optional digitalis)
[2] = tested on: myocardial fibrosis in animal models; settings: cited from earlier work
hypertensive-rat cohort = settings: sub-cutaneously; hypertensive rats; cited from earlier work
[3] = tested on: patients afflicted with congestive heart failure; settings: coadministered with an ACE inhibitor; cited from earlier work

Row | SMILES | Plasma aldosterone despite continued ACE inhibition (hypertensive patients) | Likelihood of hyperkalemia on captopril vs another ACE-I ([1]; background ACE-I) | Myocardial fibrosis [2] | Fibrosis (hypertensive-rat cohort) | Patients in whom highly effective [3] | Mean systolic and diastolic blood pressure (standing and supine) ([1]; 25 mg, 50 mg and 75 mg groups, all visits) | Change from baseline in body weight ([1]; 75 mg dose group, Day 9 and Week 4) | Change from baseline in PRA, dose-response ([1]; Day 9, Week 4 and Week 12 (P≦0.001)) | Change from baseline in serum magnesium ([1]; Day 9 and Week 4 (p≦0.048), not at later visits) | Change from baseline in supine pulse, dose response ([1]; Week 4 (p-value=0.045)) | Hematocrit and hemoglobin vs placebo ([1]; Week 12 (p=0.002; 0.005)) | Urinary aldosterone excretion, dose response ([1]; Week 12 vs baseline (p=0.002)) | N-Terminal Atrial Natriuretic Factor (ANF) change ([1]; all active treatments, Day 9, Week 4, Week 12) | Deaths during the drug treatment period ([1]; all doses, 12 weeks) | Change from baseline in serum potassium, dose-response ([1]; all treatment period visits (p<0.001)) | Hyperkalemia adverse event, dose-response of incidence ([1]; p=0.001) | Patients who died within 30 days after the study was completed ([1]; previously at the 50 mg dose) | NYHA Class improvement ([1]; vs placebo, not statistically significant)
1 | C[C@H](CS)C(=O)N1CCC[C@H]1C(=O)O [Captopril, captopril] | gradual return of plasma aldosterone to baseline levels | about one-third as likely to develop hyperkalemia | – | – | – | – | – | – | – | – | – | – | – | – | – | – | – | –
2 | CC(=O)S[C@@H]1CC2=CC(=O)CC[C@]2(C)[C@H]2CC[C@@]3(C)[C@@H](CC[C@@]34CCC(=O)O4)[C@H]12 [Spironolactone, 17-hydroxy-7α-mercapto-3-oxo-17α-pregn-4-ene-21-carboxylic acid γ-lactone acetate] | – | – | prevents myocardial fibrosis in animal models | prevent fibrosis in the hypertensive-rat cohort | 13 of 16 | decreases in mean systolic and diastolic blood pressure | more weight loss than other patients | higher doses of spironolactone associated with greater increases in PRA | statistically significant dose-response | greater decreases in pulse in the supine position at higher doses | lower levels for the active treatment groups | Greater increases were seen at higher doses of spironolactone | decreases from baseline at all treatment visits | No deaths | Higher doses of spironolactone were associated with larger increases in potassium | clear dose-response in term of incidence | Three | trend toward improvement
